Test results reported in ChEMBL document CHEMBL1159030, “Plant anticancer agents, L. cytotoxic triterpenes from Sandoricum koetjape stems” (1992).
Values after ≈ are worked out from the molar mass of the structure shown. Active and inactive are the calls of the source. The calls are words filed in the database; no cut-off is given here.

Legend:
LNCaP = experiment: Cytotoxicity against human LNCAP cells; type: functional; conditions: read-out: ED50 (the source's name)
HT-1080 = experiment: Cytotoxicity against human HT1080 cells; type: functional; conditions: read-out: ED50 (the source's name)
Lu1 = experiment: Cytotoxicity against human Lu1 cells; type: functional; conditions: read-out: ED50 (the source's name)
[1] = Cytotoxicity against human vinblastine-resistant KBV1 cells; type: functional; conditions: KB-V1, read-out: ED50 (the source's name)
[2] = Cytotoxicity against human BC1 cells; type: functional; conditions: read-out: ED50 (the source's name)
ASK = experiment: Antimitotic activity in rat ASK cells at 0.32 to 20 ug/mL; type: functional, cell-based
A-431 = experiment: Cytotoxicity against human A431 cells; type: functional; conditions: read-out: ED50 (the source's name)
P388 = experiment: Cytotoxicity against mouse P388 cells; type: functional; conditions: read-out: ED50 (the source's name)
KB = experiment: Cytotoxicity against human KB cells; type: functional; conditions: read-out: ED50 (the source's name)
Col2 = experiment: Cytotoxicity against human Col2 cells; type: functional; conditions: read-out: ED50 (the source's name)
SK-MEL-2 = experiment: Cytotoxicity against human SK-MEL-2 cells; type: functional; conditions: read-out: ED50 (the source's name)
ZR-75-1 = experiment: Cytotoxicity against human ZR-75-1 cells; type: functional; conditions: read-out: ED50 (the source's name)

`C=C1CC[C@@H]2O[C@]2(C)CC[C@@H]2[C@@H]1CC2(C)C` gave an EC50 (LNCaP) greater than 20 µg/mL, an EC50 (HT-1080) greater than 20 µg/mL and an EC50 (Lu1) greater than 20 µg/mL. The EC50 [1] was greater than 20 µg/mL, the EC50 [2] was greater than 20 µg/mL and the Activity (ASK) was “inactive”. It also gave an EC50 (A-431) greater than 20 µg/mL, an EC50 (P388) greater than 20 µg/mL and an EC50 (KB) greater than 20 µg/mL. The EC50 (Col2) was greater than 20 µg/mL, the EC50 (SK-MEL-2) was greater than 20 µg/mL and the EC50 (ZR-75-1) was greater than 20 µg/mL.

Compound `CC1(C)C(=O)CC[C@]2(C)[C@H]3CC=C4[C@@H]5C[C@](C)(C(=O)O)CC[C@]5(C)CC[C@@]4(C)[C@]3(C)CC[C@@H]12` has an EC50 (LNCaP) of 10 µg/mL (≈ 22 µM), an EC50 (HT-1080) greater than 20 µg/mL and an EC50 (Lu1) of 10 µg/mL (≈ 22 µM). For the same compound, the EC50 [1] was 8.5 µg/mL (≈ 18.7 µM), the EC50 [2] was greater than 20 µg/mL and the EC50 (A-431) was greater than 20 µg/mL. For the same compound, the EC50 (P388) was 0.61 µg/mL (≈ 1.34 µM), the EC50 (KB) was 4.9 µg/mL (≈ 10.8 µM) and the EC50 (Col2) was greater than 20 µg/mL. For the same compound, the EC50 (SK-MEL-2) was 12 µg/mL (≈ 26.4 µM) and the EC50 (ZR-75-1) was 5.2 µg/mL (≈ 11.4 µM).

With `C=C1CC[C@@H]2[C@H]([C@H]3[C@@H](C)CC[C@@H]13)C2(C)C` the EC50 (LNCaP) was greater than 20 µg/mL, the EC50 (HT-1080) was greater than 20 µg/mL and the EC50 (Lu1) was greater than 20 µg/mL. The EC50 [1] was greater than 20 µg/mL, the EC50 [2] was greater than 20 µg/mL and the Activity (ASK) was “inactive”. For the same compound, the EC50 (A-431) was greater than 20 µg/mL, the EC50 (P388) was greater than 20 µg/mL and the EC50 (KB) was greater than 20 µg/mL. For the same compound, the EC50 (Col2) was greater than 20 µg/mL, the EC50 (SK-MEL-2) was greater than 20 µg/mL and the EC50 (ZR-75-1) was greater than 20 µg/mL.

Work on `CC1(C)[C@H](O)CC[C@]2(C)[C@H]3CC=C4[C@@H]5C[C@](C)(C(=O)O)CC[C@]5(C)CC[C@@]4(C)[C@]3(C)CC[C@@H]12` [KATONIC ACID] yielded an EC50 (LNCaP) of 10 µg/mL (≈ 21.9 µM), an EC50 (HT-1080) of 19 µg/mL (≈ 41.6 µM) and an EC50 (Lu1) of 11 µg/mL (≈ 24.1 µM). The EC50 [1] was 15 µg/mL (≈ 32.8 µM), the EC50 [2] was 7.8 µg/mL (≈ 17.1 µM) and the EC50 (A-431) was 12 µg/mL (≈ 26.3 µM). For the same compound, the EC50 (P388) was 0.11 µg/mL (≈ 0.241 µM), the EC50 (KB) was 8.3 µg/mL (≈ 18.2 µM) and the EC50 (Col2) was greater than 20 µg/mL. For the same compound, the EC50 (SK-MEL-2) was 12 µg/mL (≈ 26.3 µM) and the EC50 (ZR-75-1) was 2.2 µg/mL (≈ 4.82 µM).

Compound `C=C(C)[C@@H]1CC[C@]2(C)[C@H](CC=C3[C@@H]4C[C@@](C)(C(=O)O)CC[C@]4(C)CC[C@]32C)[C@@]1(C)CCC(=O)O` [KOETJAPIC ACID] has an EC50 (LNCaP) greater than 20 µg/mL, an EC50 (HT-1080) greater than 20 µg/mL and an EC50 (Lu1) greater than 20 µg/mL. For the same compound, the EC50 [1] was greater than 20 µg/mL, the EC50 [2] was greater than 20 µg/mL and the Activity (ASK) was “inactive”. For the same compound, the EC50 (A-431) was greater than 20 µg/mL, the EC50 (P388) was greater than 20 µg/mL and the EC50 (KB) was greater than 20 µg/mL. The EC50 (Col2) was greater than 20 µg/mL, the EC50 (SK-MEL-2) was greater than 20 µg/mL and the EC50 (ZR-75-1) was greater than 20 µg/mL.

For `C=C1CC[C@@H]2[C@H]([C@H]3[C@H]1CC[C@]3(C)O)C2(C)C` [SPATHULENOL], the EC50 (LNCaP) was greater than 20 µg/mL, the EC50 (HT-1080) was greater than 20 µg/mL and the EC50 (Lu1) was greater than 20 µg/mL. For the same compound, the EC50 [1] was greater than 20 µg/mL, the EC50 [2] was greater than 20 µg/mL and the Activity (ASK) was “inactive”. For the same compound, the EC50 (A-431) was greater than 20 µg/mL, the EC50 (P388) was greater than 20 µg/mL and the EC50 (KB) was greater than 20 µg/mL. It also gave an EC50 (Col2) greater than 20 µg/mL, an EC50 (SK-MEL-2) greater than 20 µg/mL and an EC50 (ZR-75-1) greater than 20 µg/mL.
